In patent publication US20260240827A1, “PALATABLE LIQUID SOLUTION CONTAINING HIGH CONCENTRATION OF MIGLUSTAT” (THERANEXUS, priority 2022, published 2026):

assay: not given; details: ambient temperature; cited from earlier work

Structure (SMILES)	Solubility in water [mg/mL]
CCCCN1C[C@H](O)[C@@H](O)[C@H](O)[C@H]1CO [Miglustat, 1,5-(butylimino)-1,5-dideoxy-D-glucitol]	> 1000

assay: Drug excipient compatibility: physical description after storage; assay type: physicochemical; details: up to 4 weeks 40° C./75% RH and 25° C./60% RH, 60° C. 1 week
Procedure: This study was conducted to assess the compatibility of miglustat with excipient candidates that can be used in the liquid Miglustat product. Each different excipient was manually stirred with miglustat and stored into amber glass vials.
Vials were stored in climatic chambers with different environmental conditions: 25° C./60% RH, 40° C./75% RH and 60° C. for up to 4 weeks, in closed containers. (RH=relative humidity)
After the defined storage time, samples were exited from the climatic chambers. Operators observed the solution and described the appearance of the solution by visual inspection.

Structure (SMILES)	Compatibility of excipient with Miglustat in binary mixture (DEC study conclusion)
CC1=CC(=O)NS(=O)(=O)O1 [Acesulfame Potassium]	not compatible
Cl [Hydrochloric acid]	not compatible
O=C([O-])c1ccccc1.[Na+] [Sodium Benzoate, sodium salt of benzoic acid]	compatible
O=C(O)C(O)C(O)C(=O)O (stereo not drawn) [Tartaric acid, 2,3-Dihydroxybutanedioic acid]	compatible
O=C1O[C@H]([C@@H](O)CO)C(O)=C1O [ascorbic acid]	not compatible
